Data: patent US20260001928A1 (CORTERIA PHARMACEUTICALS, priority 2022, published 2026)
pEC50: −log10 of the molar value. *1 amine or outer side, *2 acyl side, *3 side chain or, on linkers, in order; H or OH if unused. Where a SMILES comes first, the peptide text is derived from it. Side-chain parts run from the residue outwards. [ ]: non-standard residue; d: D form. The star is where a group is joined. C18 diacid = O=C(O)CCCCCCCCCCCCCCCCC(=O)*; C16 diacid = O=C(O)CCCCCCCCCCCCCCC(=O)*; γGlu = O=C(O)[C@H](CCC(=O)[*:2])N[*:1]; Api = NC1(C(=O)O)CCNCC1; Abu = CC[C@H](N)C(=O)O; Aib = CC(C)(N)C(=O)O

Legend:
[1] = In vitro plasma stability, rat plasma; format: in vitro ADME; parameters: remaining at 2 h: dose or concentration left out as unconfirmed; conditions: male, Sprague Dawley, plasma; Rat PLM, 37° C.
[2] = In vitro plasma stability, human plasma; format: in vitro ADME; parameters: dose or concentration left out as unconfirmed; conditions: Human PLM, 37° C.
CFR1R receptor = biological target: T1, CFR1R receptor (Homo sapiens, UniProt P34998); assay: Activity at anti-target CFR1R receptor, cAMP assay in CRF1R-overexpression CHO-K1 cells; format: cell-based; conditions: 100% = Sauvagine at 100 nM; for pEC50: cAMP
T1 construct: host or cells: CHO-K1 (clone 2)
T1 sequence (P34998 24-415): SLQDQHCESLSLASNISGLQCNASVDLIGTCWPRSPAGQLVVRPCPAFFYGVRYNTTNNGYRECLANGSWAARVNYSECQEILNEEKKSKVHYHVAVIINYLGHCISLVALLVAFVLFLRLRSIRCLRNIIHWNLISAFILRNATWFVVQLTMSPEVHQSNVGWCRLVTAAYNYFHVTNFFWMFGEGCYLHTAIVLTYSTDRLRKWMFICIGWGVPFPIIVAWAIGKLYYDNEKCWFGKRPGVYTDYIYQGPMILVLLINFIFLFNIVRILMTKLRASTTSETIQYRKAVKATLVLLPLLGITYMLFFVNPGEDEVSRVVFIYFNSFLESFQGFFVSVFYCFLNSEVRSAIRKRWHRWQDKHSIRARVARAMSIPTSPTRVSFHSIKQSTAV
Outline: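 Clone 2; cryopreserved stocks (10% DMSO); 4000 cells/well final; 100% activation = Sauvagine 100 nM; otherwise as TeloHAEC protocol.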

Sprague Dawley rats = assay: Effect on systolic blood pressure, telemetry in Sprague Dawley rats; format: in vivo, rat; conditions: 0.1 mg/kg SC; for Systolic blood pressure (Mean) % change from baseline, 8 h / Systolic blood pressure (Mean) % change from baseline, 12 h / Systolic blood pressure (Mean) % change from baseline, 24 h: n=2; for Duration of action: last time point with an effect on BP still observed
Outline: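 Values are % change from a 1 h pre-dose baseline in systolic pressure, tracked by telemetry for up to 48 hours after a single 0.1 mg/kg subcutaneous dose. Rats (Sprague Dawley, n=2 per peptide) carried aortic catheters and recovered at least 10 days post-surgery; duration of action marks the last time point still showing an effect.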

human CRF2a receptor = biological target: T2, human CRF2a receptor (Homo sapiens, UniProt Q13324); assay: Activity at human CRF2a receptor, cAMP functional assay in TeloHEAC cells; format: cell-based; conditions: TeloHEAC cells stably expressing human CRF2a receptor, relative to urocortin 2 (100 nM = 100%)
T2 construct: expressed in transfected cells; host or cells: TeloHEAC cells
T2 sequence (Q13324 1-411): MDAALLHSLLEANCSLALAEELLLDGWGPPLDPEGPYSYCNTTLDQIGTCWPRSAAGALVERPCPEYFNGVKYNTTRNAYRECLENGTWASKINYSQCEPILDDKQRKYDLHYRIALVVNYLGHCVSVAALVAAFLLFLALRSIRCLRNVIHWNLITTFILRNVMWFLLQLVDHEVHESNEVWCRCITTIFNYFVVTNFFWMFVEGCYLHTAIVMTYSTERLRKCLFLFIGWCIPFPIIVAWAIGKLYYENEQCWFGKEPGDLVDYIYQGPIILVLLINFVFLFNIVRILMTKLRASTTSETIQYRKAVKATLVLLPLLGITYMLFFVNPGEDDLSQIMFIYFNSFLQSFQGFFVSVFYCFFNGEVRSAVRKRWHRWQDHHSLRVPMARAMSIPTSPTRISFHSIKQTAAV
Outline: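 TeloHEAC cells stably expressing human CRF2a (10000 cells/well, suspended in HBSS/20 mM HEPES with 2 mM IBMX) were exposed to compounds for 30 min at 37 °C. cAMP was read as the 665/620 nm fluorescence ratio after 1 h at room temperature. EC50 was derived relative to 100 nM urocortin 2, set as 100%.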

[3] = In vitro plasma stability, minipig plasma; format: in vitro ADME; parameters: remaining at 2 h: dose or concentration left out as unconfirmed; conditions: pig, plasma; Minipig PLM, 37° C.
[4] = Chemical stability in buffer (pH 7.4 / pH 4.5), % purity loss; format: physicochemical; conditions: 40° C. vs 5° C., 14 or 28 days; for Buffer stability pH 4.5 % purity loss: 100 mM acetate buffer pH 4.5; for Buffer stability pH 7.4 % purity loss: 100 mM phosphate buffer pH 7.4
Outline: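 LC-UV gave % loss after 14 or 28 days of storage at 5 °C or 40 °C. Samples were diluted supernatants from compound incubated 1 h at room temperature at 10 mg/mL target, in 100 mM acetate pH 4.5 or 100 mM phosphate pH 7.4.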

[5] = In vitro subcutaneous tissue supernatant (SCts) stability and metabolite identification, rat; format: in vitro ADME; parameters: remaining at 2 h: dose or concentration left out as unconfirmed; conditions: male, Sprague Dawley; rat subcutaneous tissue supernatant (SCts), 37° C, 2 h
Minipig PLM = conditions: 37° C., up to 2 hours
Human PLM = conditions: 37° C., up to 2 hours
Rat PLM = conditions: male Sprague Dawley rats, 37° C., up to 2 hours

Compound	remaining at 2 h [1] [%]	remaining at 2 h [2] [%]	Emax (% I) (CFR1R receptor)	pEC50 (CFR1R receptor)	pEC50 (human CRF2a receptor)	remaining at 2 h [3] [%]	Buffer stability pH 4.5 % purity loss [4]	Buffer stability pH 7.4 % purity loss [4]	remaining at 2 h [5] [%]	not cleaved (Minipig PLM) [% remaining at 2 hours]	not cleaved (Human PLM) [% remaining at 2 hours]	not cleaved (Rat PLM) [% remaining at 2 hours]	Systolic blood pressure (Mean) % change from baseline, 8 h (Sprague Dawley rats) [%]	Systolic blood pressure (Mean) % change from baseline, 12 h (Sprague Dawley rats) [%]	Systolic blood pressure (Mean) % change from baseline, 24 h (Sprague Dawley rats) [%]	Duration of action (Sprague Dawley rats) [h]
CC[C@H](C)[C@H](NC(C)=O)C(=O)N[C@H](C(=O)N[C@@H](CC(C)C)C(=O)N[C@@H](CO)C(=O)N[C@@H](CC(C)C)C(=O)N[C@@H](CC(=O)O)C(=O)N[C@@H](C(=O)N1CCC[C@H]1C(=O)N[C@H](C(=O)N[C@@H](CCCCN)C(=O)N[C@@H](CC(C)C)C(=O)N[C@@H](CCCCNC(=O)CC[C@H](NC(=O)CCCCCCCCCCCCCCC(=O)O)C(=O)O)C(=O)N[C@@H](CCCCN)C(=O)N[C@H](C(=O)N[C@@H](CC(C)C)C(=O)N[C@@H](CC(C)C)C(=O)N[C@@H](CCC(=O)O)C(=O)N[C@@H](CCC(N)=O)C(=O)N[C@@H](CCC(=O)O)C(=O)N[C@@H](CCCCN)C(=O)N[C@@H](CCC(N)=O)C(=O)N[C@@H](CCCCN)C(=O)N[C@@H](CCCCN)C(=O)N[C@@H](CCC(N)=O)C(=O)N[C@@H](CCCNC(=N)N)C(=O)N[C@@H](CCC(=O)O)C(=O)N[C@@H](CCC(N)=O)C(=O)N[C@@H](C)C(=O)N[C@@H](CCC(=O)O)C(=O)N[C@H](C(=O)N[C@@H](CC(N)=O)C(=O)NC1(C(=O)N[C@@H](CCC(N)=O)C(=O)N[C@H](C(=O)N[C@@H](CC(C)C)C(=O)N[C@@H](C)C(=O)N[C@@H](CCC(N)=O)C(=O)N[C@H](C(N)=O)C(C)C)[C@@H](C)CC)CCNCC1)[C@@H](C)O)[C@@H](C)CC)[C@@H](C)CC)C(C)C)C(C)C [compound 57] (Ac-IVLSLD[dV]PIKLK([γGlu-C16 diacid])KILLEQEKQKKQREQAETN[Api]QILAQV-NH2)	96	104	24	< 6.60	9.41	81	0/0 ^ %	0/0 ^ %	–	–	–	–	−34	−25	−2	>24
CC[C@H](C)[C@H](NC(C)=O)C(=O)N[C@H](C(=O)N[C@@H](CC(C)C)C(=O)N[C@@H](CO)C(=O)N[C@@H](CC(C)C)C(=O)N[C@@H](CC(=O)O)C(=O)N[C@@H](C(=O)N1CCC[C@H]1C(=O)N[C@H](C(=O)N[C@@H](CCCCN)C(=O)N[C@@H](CC(C)C)C(=O)N[C@@H](CCCCNC(=O)CC[C@H](NC(=O)CCCCCCCCCCCCCCCCC(=O)O)C(=O)O)C(=O)N[C@@H](CCCCN)C(=O)N[C@H](C(=O)N[C@@H](CC(C)C)C(=O)N[C@@H](CC(C)C)C(=O)N[C@@H](CCC(=O)O)C(=O)N[C@@H](CCC(N)=O)C(=O)N[C@@H](CCC(=O)O)C(=O)N[C@@H](CCCCN)C(=O)N[C@@H](CCC(N)=O)C(=O)N[C@@H](CCCCN)C(=O)N[C@@H](CCCCN)C(=O)N[C@@H](CCC(N)=O)C(=O)N[C@@H](CCCNC(=N)N)C(=O)N[C@@H](CCC(=O)O)C(=O)N[C@@H](CCC(N)=O)C(=O)N[C@@H](C)C(=O)N[C@@H](CCC(=O)O)C(=O)N[C@H](C(=O)N[C@@H](CC(N)=O)C(=O)NC(C)(C)C(=O)N[C@@H](CCC(N)=O)C(=O)N[C@H](C(=O)N[C@@H](CC(C)C)C(=O)N[C@@H](C)C(=O)N[C@@H](CCC(N)=O)C(=O)N[C@H](C(N)=O)C(C)C)[C@@H](C)CC)[C@@H](C)O)[C@@H](C)CC)[C@@H](C)CC)C(C)C)C(C)C [compound 125] (Ac-IVLSLD[dV]PIKLK([γGlu-C18 diacid])KILLEQEKQKKQREQAETN[Aib]QILAQV-NH2)	108	93	18	< 6.60	9.82	110	–	0/nd ^ %	79	–	–	–	−25	−16	1	22
Ac-IVLSLDvPIKαMELK*KILLEQEKQKKQREQAETNAibQILAQV-NH2	–	–	–	–	–	–	–	–	–	106	97	95	–	–	–	–
NMeIVLSLDvPIKLK*KILLEQEKQKKQREQAETNAibQILAQV-NH2	–	–	–	–	–	–	–	–	–	126	91	128	–	–	–	–

Further lines, with some results ahead:

remaining at 2 h [1] [%]	remaining at 2 h [2] [%]	Emax (% I) (CFR1R receptor)	pEC50 (CFR1R receptor)	pEC50 (human CRF2a receptor)	remaining at 2 h [3] [%]	Buffer stability pH 4.5 % purity loss [4]	Buffer stability pH 7.4 % purity loss [4]	remaining at 2 h [5] [%]	not cleaved (Minipig PLM) [% remaining at 2 hours]	not cleaved (Human PLM) [% remaining at 2 hours]	not cleaved (Rat PLM) [% remaining at 2 hours]	Compound	Systolic blood pressure (Mean) % change from baseline, 8 h (Sprague Dawley rats) [%]	Systolic blood pressure (Mean) % change from baseline, 12 h (Sprague Dawley rats) [%]	Systolic blood pressure (Mean) % change from baseline, 24 h (Sprague Dawley rats) [%]	Duration of action (Sprague Dawley rats) [h]
73	102	9	< 6.60	9.92	97	0/0 ^ %	0/0 ^ %	–	–	–	–	CC[C@H](NC(=O)[C@H](CC(N)=O)NC(=O)[C@@H](NC(=O)[C@H](CCC(=O)O)NC(=O)[C@H](C)NC(=O)[C@H](CCC(N)=O)NC(=O)[C@H](CCC(=O)O)NC(=O)[C@H](CCCNC(=N)N)NC(=O)[C@H](CCC(N)=O)NC(=O)[C@H](CCCCN)NC(=O)[C@H](CCCCN)NC(=O)[C@H](CCC(N)=O)NC(=O)[C@H](CCCCN)NC(=O)[C@H](CCC(=O)O)NC(=O)[C@H](CCC(N)=O)NC(=O)[C@H](CCC(=O)O)NC(=O)[C@H](CC(C)C)NC(=O)[C@H](CC(C)C)NC(=O)[C@@H](NC(=O)[C@H](CCCCN)NC(=O)[C@H](CCCCNC(=O)CC[C@H](NC(=O)CCCCCCCCCCCCCCC(=O)O)C(=O)O)NC(=O)[C@H](CC(C)C)NC(=O)[C@H](CCCCN)NC(=O)[C@@H](NC(=O)[C@@H]1CCCN1C(=O)[C@H](NC(=O)[C@H](CC(=O)O)NC(=O)[C@H](CC(C)C)NC(=O)[C@H](CO)NC(=O)[C@H](CC(C)C)NC(=O)[C@@H](NC(=O)[C@@H](NC(C)=O)[C@@H](C)CC)C(C)C)C(C)C)[C@@H](C)CC)[C@@H](C)CC)[C@@H](C)O)C(=O)N[C@@H](CCC(N)=O)C(=O)N[C@H](C(=O)N[C@@H](CC(C)C)C(=O)N[C@@H](C)C(=O)N[C@@H](CCC(N)=O)C(=O)N[C@H](C(N)=O)C(C)C)[C@@H](C)CC [compound 51] (Ac-IVLSLD[dV]PIKLK([γGlu-C16 diacid])KILLEQEKQKKQREQAETN[Abu]QILAQV-NH2)	−27	−19	−1	24
–	–	–	–	–	–	–	–	–	97	102	–	Ac-IVLSLDvPIKLK*KILLEQEKQKKQREQAETNAbuQILAQV-NH2	–	–	–	–
–	–	–	–	–	–	–	–	–	110	93	108	Ac-IVLSLDvPIKLK*KILLEQEKQKKQREQAETNAibQILAQV-NH2	–	–	–	–
–	–	–	–	–	–	–	–	–	104	101	98	Pentanoyl-VLSLDvPIKLK*KILLEQEKQKKQREQAETNAibQILAQV-NH2	–	–	–	–
